Molecules are shown by their SMILES.

These results are taken from ChEMBL document CHEMBL3132769, “Fragment growing to retain or alter the selectivity of anchored kinase hinge-binding fragments” (Medchemcomm, 2014).

The target of assay [1] is Casein kinase I isoform alpha (Homo sapiens) (UniProt P48729). Nature of the assay: Inhibition of human full length CSNK1A1 expressed in baculovirus assessed as substrate phosphorylation using fluorescence-labelled peptides as substrate at 8 uM after 90 mins by microfluidic peptide phosphorylation assay.
Assay [2] concerns the target T1, cGMP-dependent protein kinase 1 (Homo sapiens) (UniProt Q13976).
T1 sequence (whole entry): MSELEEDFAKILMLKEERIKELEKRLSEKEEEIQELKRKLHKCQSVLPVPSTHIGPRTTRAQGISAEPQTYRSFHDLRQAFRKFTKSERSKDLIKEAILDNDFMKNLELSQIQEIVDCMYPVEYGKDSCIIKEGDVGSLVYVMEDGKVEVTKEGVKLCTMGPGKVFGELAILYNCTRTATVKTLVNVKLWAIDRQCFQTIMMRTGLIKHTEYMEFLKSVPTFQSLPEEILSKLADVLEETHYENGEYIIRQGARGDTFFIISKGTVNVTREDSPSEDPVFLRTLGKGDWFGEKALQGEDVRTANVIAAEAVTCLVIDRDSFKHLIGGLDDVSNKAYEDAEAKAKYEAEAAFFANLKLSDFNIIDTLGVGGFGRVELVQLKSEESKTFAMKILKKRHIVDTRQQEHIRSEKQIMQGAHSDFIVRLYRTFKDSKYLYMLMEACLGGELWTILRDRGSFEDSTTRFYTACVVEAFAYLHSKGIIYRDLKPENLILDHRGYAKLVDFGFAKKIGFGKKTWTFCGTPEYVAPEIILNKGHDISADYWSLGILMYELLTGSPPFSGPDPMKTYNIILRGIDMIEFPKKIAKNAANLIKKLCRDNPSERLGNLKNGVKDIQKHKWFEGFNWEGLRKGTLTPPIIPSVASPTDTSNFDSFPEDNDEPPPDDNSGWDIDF
Nature of the assay: Inhibition of human full length PKG-1a expressed in baculovirus assessed as substrate phosphorylation using fluorescence-labelled peptides as substrate at 8 uM after 90 mins by microfluidic peptide phosphorylation assay.

Assay [3] deals with Ribosomal protein S6 kinase alpha-3 (Homo sapiens) (UniProt P51812). Nature of the assay: Inhibition of human full length RSK2 expressed in baculovirus assessed as substrate phosphorylation using fluorescence-labelled peptides as substrate at 0.06 uM after 90 mins by microfluidic peptide phosphorylation assay.
Assay [4] is filed under the species Homo sapiens. Nature of the assay: Inhibition of human full length PKA expressed in baculovirus assessed as substrate phosphorylation using fluorescence-labelled peptides as substrate at 70 uM after 90 mins by microfluidic peptide phosphorylation assay.
Assay [5] deals with T1, cGMP-dependent protein kinase 1 (Homo sapiens). Nature of the assay: Inhibition of human full length PKG-1beta expressed in baculovirus assessed as substrate phosphorylation using fluorescence-labelled peptides as substrate at 70 uM after 90 mins by microfluidic peptide phosphorylation assay.
The target in assay [6] is Mitogen-activated protein kinase 1 (Homo sapiens) (UniProt P28482). Nature of the assay: Inhibition of human full length ERK2 expressed in Escherichia coli cell assessed as substrate phosphorylation using fluorescence-labelled peptides as substrate at 70 uM after 90 mins by microfluidic peptide phosphorylation assay.
The target in assay [7] is Calcium/calmodulin-dependent protein kinase type II subunit beta (Homo sapiens) (UniProt Q13554). Nature of the assay: Inhibition of human CAMK2 beta catalytic domain expressed in baculovirus assessed as substrate phosphorylation using fluorescence-labelled peptides as substrate at 2 uM after 90 mins by microfluidic peptide phosphorylation assay.
Assay [8] concerns the target T2, Serine/threonine-protein kinase DCLK2 (Homo sapiens) (UniProt Q8N568).
T2 sequence (whole entry): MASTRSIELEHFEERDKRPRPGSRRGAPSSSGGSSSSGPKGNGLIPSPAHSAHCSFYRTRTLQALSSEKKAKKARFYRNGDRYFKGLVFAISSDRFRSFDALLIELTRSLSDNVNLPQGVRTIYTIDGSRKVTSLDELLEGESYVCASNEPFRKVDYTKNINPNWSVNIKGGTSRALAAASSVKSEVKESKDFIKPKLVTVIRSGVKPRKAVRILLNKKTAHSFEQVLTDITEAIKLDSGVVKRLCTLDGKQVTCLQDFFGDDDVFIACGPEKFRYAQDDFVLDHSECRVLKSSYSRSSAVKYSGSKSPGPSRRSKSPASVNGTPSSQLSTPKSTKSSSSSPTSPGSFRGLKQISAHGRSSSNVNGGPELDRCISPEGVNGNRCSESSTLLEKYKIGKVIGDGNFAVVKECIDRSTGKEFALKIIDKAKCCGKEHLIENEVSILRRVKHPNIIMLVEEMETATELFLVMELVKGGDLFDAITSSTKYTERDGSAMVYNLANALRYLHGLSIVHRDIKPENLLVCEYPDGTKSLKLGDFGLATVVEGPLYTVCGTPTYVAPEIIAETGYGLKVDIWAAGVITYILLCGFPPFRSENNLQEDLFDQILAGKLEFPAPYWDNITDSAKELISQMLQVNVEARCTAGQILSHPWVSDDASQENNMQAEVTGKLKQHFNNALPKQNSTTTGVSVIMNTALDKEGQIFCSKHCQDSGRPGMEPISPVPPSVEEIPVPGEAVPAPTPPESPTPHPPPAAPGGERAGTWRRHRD
Nature of the assay: Inhibition of human full length DCAMKL2 expressed in baculovirus assessed as substrate phosphorylation using fluorescence-labelled peptides as substrate at 2 uM after 90 mins by microfluidic peptide phosphorylation assay.

In assay [9] the target is T3, MAP kinase-activated protein kinase 5 (Homo sapiens) (UniProt Q8IW41).
T3 sequence (whole entry): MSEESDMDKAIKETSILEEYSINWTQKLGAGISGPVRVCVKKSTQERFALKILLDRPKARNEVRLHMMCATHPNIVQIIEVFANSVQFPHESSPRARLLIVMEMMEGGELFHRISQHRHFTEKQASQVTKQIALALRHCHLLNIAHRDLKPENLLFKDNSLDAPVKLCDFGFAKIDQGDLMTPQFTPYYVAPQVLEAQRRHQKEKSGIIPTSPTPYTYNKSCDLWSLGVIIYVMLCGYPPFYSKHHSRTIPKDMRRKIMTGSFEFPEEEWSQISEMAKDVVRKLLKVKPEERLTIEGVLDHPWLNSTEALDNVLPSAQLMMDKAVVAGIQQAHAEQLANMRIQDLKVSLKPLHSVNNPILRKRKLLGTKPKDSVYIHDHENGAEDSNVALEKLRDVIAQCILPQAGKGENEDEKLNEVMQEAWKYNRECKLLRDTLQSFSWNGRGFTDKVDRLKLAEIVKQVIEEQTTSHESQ
Nature of the assay: Inhibition of human full length PRAK expressed in baculovirus assessed as substrate phosphorylation using fluorescence-labelled peptides as substrate at 2 uM after 90 mins by microfluidic peptide phosphorylation assay.

Sequence of Mitogen-activated protein kinase 1 (Homo sapiens) (P28482 whole entry, the tested form may be a part): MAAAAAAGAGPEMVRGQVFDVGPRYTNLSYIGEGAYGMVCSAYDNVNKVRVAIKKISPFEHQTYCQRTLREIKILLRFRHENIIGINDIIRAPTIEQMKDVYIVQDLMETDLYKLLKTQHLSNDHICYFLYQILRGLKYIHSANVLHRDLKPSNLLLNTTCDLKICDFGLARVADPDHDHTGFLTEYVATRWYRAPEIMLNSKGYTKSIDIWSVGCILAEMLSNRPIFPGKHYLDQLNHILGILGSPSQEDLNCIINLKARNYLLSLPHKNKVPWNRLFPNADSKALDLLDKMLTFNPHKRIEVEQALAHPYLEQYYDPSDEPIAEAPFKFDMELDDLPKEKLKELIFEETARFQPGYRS
Sequence of Casein kinase I isoform alpha (Homo sapiens) (P48729 2-337 limits assumed): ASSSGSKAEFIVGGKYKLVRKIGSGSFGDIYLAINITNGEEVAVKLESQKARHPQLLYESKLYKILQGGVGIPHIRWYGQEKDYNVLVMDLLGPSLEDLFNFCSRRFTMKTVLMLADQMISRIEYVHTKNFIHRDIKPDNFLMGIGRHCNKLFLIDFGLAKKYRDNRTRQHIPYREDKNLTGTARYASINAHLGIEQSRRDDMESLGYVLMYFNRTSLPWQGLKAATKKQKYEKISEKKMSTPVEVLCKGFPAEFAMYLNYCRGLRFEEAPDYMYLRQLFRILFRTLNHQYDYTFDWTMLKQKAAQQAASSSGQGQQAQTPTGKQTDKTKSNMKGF
Sequence of Calcium/calmodulin-dependent protein kinase type II subunit beta (Homo sapiens) (Q13554 whole entry, the tested form may be a part): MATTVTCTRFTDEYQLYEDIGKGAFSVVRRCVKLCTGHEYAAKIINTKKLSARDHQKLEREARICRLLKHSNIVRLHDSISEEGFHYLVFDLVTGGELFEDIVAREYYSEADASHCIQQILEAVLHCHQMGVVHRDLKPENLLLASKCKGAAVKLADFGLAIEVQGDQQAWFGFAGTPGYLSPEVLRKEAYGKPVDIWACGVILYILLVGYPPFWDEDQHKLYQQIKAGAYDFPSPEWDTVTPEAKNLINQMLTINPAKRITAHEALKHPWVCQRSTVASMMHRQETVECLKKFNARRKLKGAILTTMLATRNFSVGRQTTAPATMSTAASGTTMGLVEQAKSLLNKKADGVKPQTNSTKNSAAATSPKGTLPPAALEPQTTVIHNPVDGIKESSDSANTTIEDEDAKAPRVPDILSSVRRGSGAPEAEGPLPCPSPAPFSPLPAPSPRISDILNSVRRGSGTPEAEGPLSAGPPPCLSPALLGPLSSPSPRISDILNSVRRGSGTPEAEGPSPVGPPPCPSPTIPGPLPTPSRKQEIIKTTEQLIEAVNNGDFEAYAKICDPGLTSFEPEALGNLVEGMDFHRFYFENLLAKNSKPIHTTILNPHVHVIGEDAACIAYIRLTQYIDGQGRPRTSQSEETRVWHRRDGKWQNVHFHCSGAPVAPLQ
Sequence of Ribosomal protein S6 kinase alpha-3 (Homo sapiens) (P51812 whole entry): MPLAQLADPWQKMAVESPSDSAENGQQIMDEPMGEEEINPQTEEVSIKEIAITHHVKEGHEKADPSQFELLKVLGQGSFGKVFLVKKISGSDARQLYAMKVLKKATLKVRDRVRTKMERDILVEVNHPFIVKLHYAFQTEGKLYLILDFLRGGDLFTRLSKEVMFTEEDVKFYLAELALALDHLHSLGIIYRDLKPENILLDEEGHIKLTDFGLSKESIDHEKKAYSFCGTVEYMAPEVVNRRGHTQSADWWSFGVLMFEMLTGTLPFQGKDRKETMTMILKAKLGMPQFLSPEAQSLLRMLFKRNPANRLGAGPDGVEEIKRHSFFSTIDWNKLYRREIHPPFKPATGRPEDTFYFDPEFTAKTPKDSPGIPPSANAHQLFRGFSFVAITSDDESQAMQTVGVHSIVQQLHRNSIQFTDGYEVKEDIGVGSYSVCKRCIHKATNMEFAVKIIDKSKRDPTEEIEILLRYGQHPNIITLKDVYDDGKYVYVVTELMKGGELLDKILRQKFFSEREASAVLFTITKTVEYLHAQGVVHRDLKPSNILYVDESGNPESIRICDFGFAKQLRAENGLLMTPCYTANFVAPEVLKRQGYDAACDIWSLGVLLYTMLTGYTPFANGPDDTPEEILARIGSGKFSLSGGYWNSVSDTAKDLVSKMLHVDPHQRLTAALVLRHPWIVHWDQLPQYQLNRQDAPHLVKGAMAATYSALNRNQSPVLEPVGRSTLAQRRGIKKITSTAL

In the case of `NCC1CCN(c2ncnc3[nH]ccc23)CC1`, the inhibition in assay [1] stood at 32.5%; in assay [2], 14%.
Take `NC1(Cc2ccc(Cl)cc2)CCN(c2ncnc3[nH]ccc23)CC1`: in assay [3], the inhibition was 0.5%.
On to `CNCc1ccc(-c2ncnc3[nH]cnc23)cc1`, for which the inhibition in assay [4] is 96%; in assay [5], 95.5%; in [6], 29%.
Take `NC1CCN(c2ncnc3[nH]ccc23)CC1`: the inhibition is 25.5% in [7], 1.5% in assay [8] and 7% in [9].

What is called inhibition is the relative decrease from the control value, in per cent.
